Where a name gives a salt, the structure may show the parent alone.

In this assay the target is T1, human IRAK4 kinase domain (aa 154-460) (Homo sapiens, UniProt Q9NWZ3).
T1 construct: human IRAK4 kinase domain (aa 154-460; GenBank ID AF445802)
T1 sequence (Q9NWZ3 154-460): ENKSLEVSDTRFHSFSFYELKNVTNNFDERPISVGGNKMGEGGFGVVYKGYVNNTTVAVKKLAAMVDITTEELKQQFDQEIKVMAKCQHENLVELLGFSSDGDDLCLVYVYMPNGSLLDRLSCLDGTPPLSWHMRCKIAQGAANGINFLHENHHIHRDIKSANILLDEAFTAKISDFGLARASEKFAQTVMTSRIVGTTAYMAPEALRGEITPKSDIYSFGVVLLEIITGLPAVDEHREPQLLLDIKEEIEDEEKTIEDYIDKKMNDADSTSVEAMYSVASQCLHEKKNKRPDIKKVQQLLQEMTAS
As to the kind of experiment: IRAK4 Enzymatic DELFIA Assay. Conditions: 0.6 mM ATP (KM); 114 pM IRAK4 kinase domain; 200 nM substrate; 5% DMSO. It counts as biochemical. How it is done: IRAK4 Enzymatic DELFIA Assay.
This is an in vitro assay to measure IRAK4 enzymatic activity utilizing the DELFIA (Dissociation-Enhanced Lanthanide Fluorescent Immunoassay, Perkin-Elmer) platform, with the human IRAK4 kinase domain (aa 154-460) construct to characterize IRAK4 inhibitor and control compounds at 0.6 mM ATP (KM). The final amount of enzyme in the assay is 114 pM IRAK4 kinase domain, final concentration of substrate is 200 nM, and final concentration of DMSO is 5%.
The test compound was solubilized in DMSO to a stock concentration of 30 mM. The dose response plates were prepared with a 2 mM primary compound concentration, and then diluted in DMSO in a four-fold series for a total of 10 data points. Compounds were prepared as a 20-fold multiple of the final in-assay concentration
To begin the assay, 45 μL of reaction mixture containing 20 mM HEPES pH=7.5, 5 mM MgCl2, 0.0025% Brij-35, […], 228 pM phosphorylated recombinant human IRAK4 kinase domain (aa 154-460; GenBank ID AF445802) were aliquoted into Ultra-Clear Polypropylene, 96-well, U-Bottom Plates (Corning Life Sciences). 5 μL of test compound from the dose-response plate was added to the reaction mixture and incubated for 15 minutes at room temperature. Then 50 μL of 20 mM HEPES pH=7.5, 5 mM MgCl2, 0.0025% Brij-35, 600 μM ATP, and 400 nM ERM-biotinylated peptide (AGAGRDKYKTLRQIR) were added to start the reaction. The reaction was incubated for 90 minutes at room temperature and stopped by the addition of 25 μL 0.5M EDTA.
100 μL of the reaction mixture was transferred to a streptavidin coated detection plate (EvenCoat Streptavidin Coated Plates, 96-Well, R&D Systems) and incubated for 30 minutes at room temperature. The plates were washed 4 times with 100 μL per well of PBS containing 0.05% Tween-20. Plates were then incubated with 50 μL per well of antibody cocktail of Anti-pERM antibody (Cell Signaling Technology) diluted 1:5000, plus Anti-Rabbit IgG EuN1 at 0.242 μg/ml (Perkin-Elmer Life Sciences) in a solution of 10 mM MOPS pH=7.5, 150 mM NaCl, 0.05% Tween-20, 0.02% NaN3, 1% BSA, 0.1% Gelatin for 45 minutes. The plates were washed 4× with 100 μL per well of PBS containing 0.05% Tween-20. Then 100 μL per well of DELFIA Enhancement Solution were added to the plate and then read on an EnVision Model 2103 using a 340 nm excitation wavelength and a 665 nm emission detection.
`CC(C)Oc1cc2c(OC3CCNCC3)nccc2cc1C(N)=O` [Example 60, 1-(piperidin-4-yloxy)-7-(propan-2-yloxy)isoquinoline-6-carboxamide] registered an IC50 of 0.092 µM. That is a double-digit nanomolar value.

For the compound `CC(C)Oc1cc2c(OC3CCCNC3)nccc2cc1C(N)=O` (stereo not drawn) [Example 64, 1-(piperidin-3-yloxy)-7-(propan-2-yloxy)isoquinoline-6-carboxamide hydrochloride], the IC50 stood at 0.16 µM. Against the preceding compound, the IC50 is about 1.7-fold higher.

For the compound `CCOc1cc2c(O[C@@H]3CCCNC3)ccnc2cc1C(N)=O` [Example 65, (R)-6-ethoxy-4-(piperidin-3-yloxy)quinoline-7-carboxamide hydrochloride], the IC50 is 0.419 µM.

As for `CC(C)Oc1cc2c(O[C@@H]3[C@@H]4CC=C[C@H]3NC4=O)nccc2cc1C(N)=O` [Example 66, 1-{[(1S,5R,8R)-7-oxo-6-azabicyclo[3.2.1]oct-3-en-8-yl]oxy}-7-(propan-2-yloxy)isoquinoline-6-carboxamide], the half-maximal inhibitory concentration (IC50) came out at 0.038 µM.

For `NC(=O)c1cc2nccc(O[C@@H]3CCCNC3)c2cc1OC(F)F` [Example 67, (R)-6-(difluoromethoxy)-4-(piperidin-3-yloxy)quinoline-7-carboxamide], half-maximal inhibition (IC50) was put at 1.39 µM. Compared with the last compound, the IC50 is about 37-fold higher.

With `Cc1cc(O[C@@H]2CCCNC2)c2cc(OC(C)C)c(C(N)=O)cc2n1` [Example 68, (R)-6-isopropoxy-2-methyl-4-(piperidin-3-yloxy)quinoline-7-carboxamide trifluoroacetate], the IC50 came to 1.3 µM. This IC50 and that of the compound before are within 1.5-fold of each other.

Take `CC(C)Oc1cc2c(O[C@@H]3CCCNC3)cccc2cc1C(N)=O` [Example 69, (R)-3-isopropoxy-5-(piperidin-3-yloxy)-2-naphthamide trifluoroacetate]: the IC50 was 0.036 µM.

Compound `CC(C)Oc1cc2c(O[C@H]3CNCC[C@@H]3C)nccc2cc1C(N)=O` [Example 70, 1-{[(3R,4S)-4-methylpiperidin-3-yl]oxy}-7-(propan-2-yloxy)isoquinoline-6-carboxamide] displayed an IC50 of 1.25 µM.

The compound `CC(C)Oc1cc2c(OC3CCCN(C)C3)ccnc2cc1C(N)=O` (stereo not drawn) [Example 71, 4-[(1-methylpiperidin-3-yl)oxyl]-6-(propan-2-yloxy)quinoline-7-carboxamide] returned an IC50 of 1.2 µM.

In turn, `CC[C@H](C)Oc1cc2c(O[C@@H]3CCCNC3)ccnc2cc1C(N)=O` [Example 72, 6-[(2S)-butan-2-yloxy]-4-[(3R)-piperidin-3-yloxy]quinoline-7-carboxamide] showed an IC50 of 1.1 µM.

As to `CC(C)Oc1cc2c(O[C@@H]3CCCNC3)ncc(C#N)c2cc1C(N)=O` [Example 73, 4-cyano-1-[(3R)-piperidin-3-yloxy]-7-(propan-2-yloxy)isoquinoline-6-carboxamide], half-maximal inhibition (IC50) was put at 1.59 µM. This IC50 and that of the compound before are within 1.5-fold of each other.

The compound `CC(C)Oc1cc2c(O[C@H]3CNCC[C@@H]3C)ccnc2cc1C(N)=O` [Example 74, 4-{[(3R,4S)-4-methylpiperidin-3-yl]oxy}-6-(propan-2-yloxy)quinoline-7-carboxamide] showed an IC50 of 2.8 µM.

For `CC(C)Oc1cc2c(O[C@H]3CCCNC3)nccc2cc1C(N)=O` [Example 75, 1-[(3S)-piperidin-3-yloxy]-7-(propan-2-yloxy)isoquinoline-6-carboxamide], the IC50 was 3.08 µM.

In the case of `CC(C)COc1cc2c(O[C@@H]3CCCNC3)ccnc2cc1C(N)=O` [Example 76, 6-(2-methylpropoxy)-4-[(3R)-piperidin-3-yloxy]quinoline-7-carboxamide], the IC50 was 2.28 µM. The IC50 values of the last two compounds are within 1.5-fold of each other.

The compound `CC(C)Oc1cc2c(O[C@@H]3CCNC3)ccnc2cc1C(N)=O` [Example 77, 6-(propan-2-yloxy)-4-[(3R)-pyrrolidin-3-yloxy]quinoline-7-carboxamide] came in with an IC50 of 1.23 µM. Compared with the last compound, the IC50 is about 1.9-fold lower.

Compound `CC(C)Oc1cc2c(O[C@H]3CNCC[C@@H]3C)ccnc2cc1C(N)=O` [Example 78, 4-{[(3R,4S)-4-methylpiperidin-3-yl]oxy}-6-(propan-2-yloxy)quinoline-7-carboxamide] came in with an IC50 of 3.04 µM.

For `CC(C)Oc1cc2c(O[C@H]3CCNC3)nccc2cc1C(N)=O` [Example 79, 7-(propan-2-yloxy)-1-[(3S)-pyrrolidin-3-yloxy]isoquinoline-6-carboxamide], the IC50 was 1.47 µM.

In turn, `CC(C)Oc1cc2c(O[C@H]3C[C@H]4CC[C@@H](C3)N4)nccc2cc1C(N)=O` [Example 80, 1-[(3-endo)-8-azabicyclo[3.2.1]oct-3-yloxy]-7-(propan-2-yloxy)isoquinoline-6-carboxamide] came in with an IC50 of 1.32 µM.

As a reminder, the IC50 is the point on the concentration scale where inhibition reaches its midpoint. Read a low IC50 as greater potency.

These data come from US20180230127A1 (PFIZER INC., priority 2015, published 2018).
